How the values were obtained:
Type in all cases: cell-based
[1] = test system: YAP/TAZ-TEAD transcription; assay: Reporter gene assay for measuring the inhibition of YAP/TAZ-TEAD transcription (TEAD-responsive element luciferase reporter in Hek293T cells); settings: Hek293T cells transfected with TEAD-responsive luciferase reporter, 24 hours incubation
Method: Hek293T cells are cultured in DMEM supplemented with 10% fetal bovine serum, Sodium pyruvate, Sodium bicarbonate, L-glutamine. The cells are harvested and transiently transfected with TEAD-responsive element luciferase reporter. Transfected cells are plated in 384-wells plate containing pre-diluted compounds. After 24 hours incubation at 37° C./5% CO2, assay plates were cooled down to RT and levelled to an equal volume per well, prior to the addition of 25 uL luciferase substrate SteadyLite (Perkin Elmer)/well. The plate was shaken for 10 min at 600 rpm, centrifuged for 1 min at 500 rpm and measured with an Envision reader (PerkinElmer). The amount of relative light units produced by the TEAD reporter is used to calculated percent of inhibition.
The percent of reporter inhibition was calculated in the presence of a positive control inhibitor (100% inhibition) versus a condition with the presence of the vehicle basal activity of the reporter (0% inhibition). The ability of a test compound to inhibit this activity was determined as: Percentage inhibition=[1−((RLU determined in the presence of vehicle−RLU determined for sample with test compound present) divided by (RLU determined in the presence of vehicle−RLU determined for sample with positive control inhibitor))]*100
The activities of example compounds tested are depicted in Table 3. The activity ranges A, B and C refer to IC50 values in the reporter gene assay as follows: “A”: IC50<1 μM; “B”: 1 μM≤IC50≤20 μM and “C”: IC50>20 μM; NT=not tested.

NCI-H226 = assay: Mesothelioma cell line proliferation assay (ATPlite), NCI-H226; settings: Homo sapiens, 144 h; NCI-H226 mesothelioma cells, 6 days incubation, ATPlite cell viability
Method: (§1) Mesothelioma cell lines, NCI-H226 and NCI-H2052 (all sourced from the ATCC cell culture collection) are plated in 96-well plates (Corning® 96 Well White Polystyrene Microplate clear flat bottom, white polystyrene (TC-Treated)), at 1500 cells/well in full medium (RPMI 1640 ATCC modification with L-glutamine, HEPES, Phenol Red, Sodium Pyruvate, High glucose, Low sodium bicarbonate and 10% fetal bovine serum). Cells are incubated overnight at 37° C. in an incubator with 5% CO2. Then compounds, dissolved in DMSO, are added in dose-response. Cells are incubated with compound dilutions for another 6 days at 37° C. in an incubator with 5% CO2. Cell viability is quantitated using the ATPlite kit (Perkin-Elmer) and the luminescence is read-out using an Envision instrument (Perkin-Elmer). The amount of relative light units produced using the ATPlite kit is used to calculated percent of inhibition.
(§2) The activities of some example compounds are depicted in Table 4. The activity ranges A, B and C refer to EC50 values in the mesothelioma cell line proliferation assay as described as follows: “A”: EC50<1 μM; “B”: 1 μM≤EC50≤10 μM and “C”: EC50>10 μM; NT: not tested.

NCI-H2052 = assay: Mesothelioma cell line proliferation assay (ATPlite), NCI-H2052; settings: Homo sapiens, 144 h; NCI-H2052 mesothelioma cells, 6 days incubation, ATPlite cell viability
Method: as §1, §2

SMILES | IC50 ([1]; Homo sapiens, HEK-293T, 24 h) [µM] | EC50 (NCI-H226) [µM] | EC50 (NCI-H2052) [µM] | IC50 [1] [µM]
C=CC(=O)N1CCC2(Cc3ccccc3N(c3ccc(C(F)(F)F)cc3)C2)C1 (racemic) [Cpd. No. 003, 1-(1′-(4-(trifluoromethyl)phenyl)-1′,4′-dihydro-2′H-spiro[pyrrolidine-3,3′-quinolin]-1-yl)prop-2-en-1-one] | < 1 | < 1 | < 1 | 
C=CC(=O)N1CCC2(Cc3ccccc3N(c3ccc(C(F)(F)F)cc3)C2)C1 (single isomer, unassigned) [Cpd. No. 003-En1, (R)- or (S)-1-(1′-(4-(trifluoromethyl)phenyl)-1′,4′-dihydro-2′H-spiro[pyrrolidine-3,3′-quinolin]-1-yl)prop-2-en-1-one] |  |  |  | < 1
C=CC(=O)N1CCC2(Cc3ccccc3N(c3ccc(C(F)(F)F)cc3)C2)C1 (single isomer, unassigned) [Cpd. No. 003-En2, (R)- or (S)-1-(1′-(4-(trifluoromethyl)phenyl)-1′,4′-dihydro-2′H-spiro[pyrrolidine-3,3′-quinolin]-1-yl)prop-2-en-1-one] | < 1 | < 1 | < 1 | 
CCC(=O)N1CCC2(Cc3ccccc3N(c3ccc(C(F)(F)F)cc3)C2)C1 (single isomer, unassigned) [Cpd. No. 004-En1, (R)- or (S)-1-(1′-(4-(trifluoromethyl)phenyl)-1′,4′-dihydro-2′H-spiro[pyrrolidine-3,3′-quinolin]-1-yl)propan-1-one] |  |  |  | > 20
CCC(=O)N1CCC2(Cc3ccccc3N(c3ccc(C(F)(F)F)cc3)C2)C1 (single isomer, unassigned) [Cpd. No. 004-En2, (R)- or (S)-1-(1′-(4-(trifluoromethyl)phenyl)-1′,4′-dihydro-2′H-spiro[pyrrolidine-3,3′-quinolin]-1-yl)propan-1-one] |  |  |  | 1 to 20
CS(=O)(=O)N1CCC2(Cc3ccccc3N(c3ccc(C(F)(F)F)cc3)C2)C1 (single isomer, unassigned) [Cpd. No. 005-En1, (R)- or (S)-1-(methylsulfonyl)-1′-(4-(trifluoromethyl)phenyl)-1′,4′-dihydro-2′H-spiro[pyrrolidine-3,3′-quinoline]] |  |  |  | > 20
CS(=O)(=O)N1CCC2(Cc3ccccc3N(c3ccc(C(F)(F)F)cc3)C2)C1 (single isomer, unassigned) [Cpd. No. 005-En2, (R)- or (S)-1-(methylsulfonyl)-1′-(4-(trifluoromethyl)phenyl)-1′,4′-dihydro-2′H-spiro[pyrrolidine-3,3′-quinoline]] |  | < 1 | < 1 | < 1
C=CC(=O)N1CCC2(CC1)Cc1ccccc1N(c1ccc(C(F)(F)F)cc1)C2=O [Cpd. No. 001, 1-acryloyl-1′-(4-(trifluoromethyl)phenyl)-1′,4′-dihydro-2′H-spiro[piperidine-4,3′-quinolin]-2′-one] | < 1 |  |  | 
C=CC(=O)N1CCC2(CC1)Cc1ccccc1N(c1ccc(C(F)(F)F)cc1)C2 [Cpd. No. 002, 1-(1′-(4-(trifluoromethyl)phenyl)-1′,4′-dihydro-2′H-spiro[piperidine-4,3′-quinolin]-1-yl)prop-2-en-1-one] | < 1 | < 1 | 1 to 10 | 
C=CC(=O)N1CC2(Cc3ccccc3N(c3ccc(C(F)(F)F)cc3)C2)C1 [Cpd. No. 006, 1-(1′-(4-(trifluoromethyl)phenyl)-1′,4′-dihydro-2′H-spiro[azetidine-3,3′-quinolin]-1-yl)prop-2-en-1-one] | < 1 | < 1 | < 1 | 
CCC(=O)N1CC2(Cc3ccccc3N(c3ccc(C(F)(F)F)cc3)C2)C1 [Cpd. No. 007, 1-(1′-(4-(trifluoromethyl)phenyl)-1′,4′-dihydro-2′H-spiro[azetidine-3,3′-quinolin]-1-yl)propan-1-one] | > 20 |  |  | 
CC(NC(=O)N1CCC2(Cc3ccccc3N(c3ccc(C(F)(F)F)cc3)C2)C1)c1ccccn1 (stereo not shown) [Cpd. No. 008, N-[1-(2-pyridyl)ethyl]-1-[4-(trifluoromethyl)phenyl]spiro[2,4-dihydroquinoline-3,3′-pyrrolidine]-1′-carboxamide] | 1 to 20 |  |  | 
C=CC(=O)N1CCC2(Cc3cc(C(F)(F)F)ccc3N(c3ccc(C(F)(F)F)cc3)C2)C1 (stereo not shown) [Cpd. No. 009, 1-[6-(trifluoromethyl)-1-[4-(trifluoromethyl)phenyl]spiro[2,4-dihydroquinoline-3,3′-pyrrolidine]-1′-yl]prop-2-en-1-one] | < 1 |  |  | 
CC(=O)N1CCC2(Cc3cc(C(F)(F)F)ccc3N(c3ccc(C(F)(F)F)cc3)C2)C1 (stereo not shown) [Cpd. No. 010, 1-[6-(trifluoromethyl)-1-[4-(trifluoromethyl)phenyl]spiro[2,4-dihydroquinoline-3,3′-pyrrolidine]-1′-yl]ethanone] | > 20 |  |  | 
CS(=O)(=O)N1CCC2(Cc3cc(C(F)(F)F)ccc3N(c3ccc(C(F)(F)F)cc3)C2)C1 (stereo not shown) [Cpd. No. 011, 1′-methylsulfonyl-6-(trifluoromethyl)-1-[4-(trifluoromethyl)phenyl]spiro[2,4-dihydroquinoline-3,3′-pyrrolidine]] | < 1 |  |  | 

— patent publication US12673950B2, “Spiros and related analogs for inhibiting YAP/TAZ-TEAD” (THE KATHOLIEKE UNIVERSITEIT LEUVEN, priority 2021, dated 2026)
